PMC9301957 (ACS Omega, 2022)

Key:
[1] = test system: mTOR; assay: mTOR ELISA, downstream signaling pathway in HCT-116 cells; format: cell-based, human; conditions: compound at its IC50, untreated control 86.39 ng/mL
[2] = test system: PI3K; assay: PI3K ELISA, downstream signaling pathway in HCT-116 cells; format: cell-based, human; conditions: compound at its IC50, untreated control 6.64 ng/mL
[3] = test system: AKT; assay: AKT ELISA, downstream signaling pathway in HCT-116 cells; format: cell-based, human; conditions: compound at its IC50, untreated control 45.39 ng/mL
[4] = target: EGFR (Homo sapiens, UniProt P00533); assay: EGFR protein kinase; format: biochemical; conditions: mean ± SD of three replicates; for inhibition at 10 µM: read-out: autophosphorylation percentage inhibition at conc (10 μM), 10 μM
EGFR, sequence (P00533 25-1210): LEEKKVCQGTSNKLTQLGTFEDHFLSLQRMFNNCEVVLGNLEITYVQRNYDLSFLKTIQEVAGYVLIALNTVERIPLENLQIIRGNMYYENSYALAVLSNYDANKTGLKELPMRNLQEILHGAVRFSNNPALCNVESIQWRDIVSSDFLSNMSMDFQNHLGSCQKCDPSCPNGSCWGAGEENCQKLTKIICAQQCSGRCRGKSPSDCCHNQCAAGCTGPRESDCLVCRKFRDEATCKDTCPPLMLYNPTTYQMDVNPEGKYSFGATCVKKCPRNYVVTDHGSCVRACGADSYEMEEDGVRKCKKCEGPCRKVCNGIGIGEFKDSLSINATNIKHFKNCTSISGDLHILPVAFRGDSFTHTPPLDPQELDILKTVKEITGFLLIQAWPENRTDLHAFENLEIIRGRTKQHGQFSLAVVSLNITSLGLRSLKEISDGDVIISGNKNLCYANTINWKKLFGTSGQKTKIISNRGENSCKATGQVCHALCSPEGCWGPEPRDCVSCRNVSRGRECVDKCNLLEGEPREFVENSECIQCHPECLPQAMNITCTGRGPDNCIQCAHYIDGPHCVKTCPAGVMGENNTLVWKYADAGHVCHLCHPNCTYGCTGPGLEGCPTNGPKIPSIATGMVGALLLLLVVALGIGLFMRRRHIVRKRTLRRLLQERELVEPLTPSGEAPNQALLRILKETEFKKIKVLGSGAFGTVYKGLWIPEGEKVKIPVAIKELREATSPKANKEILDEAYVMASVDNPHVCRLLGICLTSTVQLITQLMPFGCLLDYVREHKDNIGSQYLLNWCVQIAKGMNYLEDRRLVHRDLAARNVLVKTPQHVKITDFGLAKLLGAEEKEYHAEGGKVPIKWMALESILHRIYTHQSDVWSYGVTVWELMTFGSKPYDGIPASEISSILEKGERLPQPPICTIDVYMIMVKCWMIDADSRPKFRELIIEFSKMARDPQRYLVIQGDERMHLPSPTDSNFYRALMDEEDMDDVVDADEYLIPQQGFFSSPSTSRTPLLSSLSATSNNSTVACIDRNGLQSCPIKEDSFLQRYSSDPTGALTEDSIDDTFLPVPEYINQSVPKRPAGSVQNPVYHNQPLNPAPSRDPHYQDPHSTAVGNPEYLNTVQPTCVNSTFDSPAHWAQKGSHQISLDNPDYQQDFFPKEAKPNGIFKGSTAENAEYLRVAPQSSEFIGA

| Compound | mTOR concentration in treated HCT-116 cells [1] [ng/mL] | PI3K concentration in treated HCT-116 cells [2] [ng/mL] | AKT concentration in treated HCT-116 cells [3] [ng/mL] | autophosphorylation percentage inhibition at conc (10 μM) [4] [%] | inhibition at 10 µM [4] [%] |
| --- | --- | --- | --- | --- | --- |
| Cc1cc(C)n(-c2nc(Nc3ccc(Br)cc3)nc(N3CCOCC3)n2)n1 [Compound 4f, N-(4-Bromophenyl)-4-(3,5-dimethyl-1H-pyrazol-1-yl)-6-morpholino-1,3,5-triazin-2-amine] | 34.36 | 1.24 | 12.35 |  |  |
| Cc1cc(C)n(-c2nc(Nc3ccc(Cl)cc3)nc(-n3nc(C)cc3C)n2)n1 [Compound 5c, N-(4-chlorophenyl)-4,6-bis(3,5-dimethyl-1H-pyrazol-1-yl)-1,3,5-triazin-2-amine] |  |  |  | 69.68 ± 2.01 | 70 |
| COc1ccc(Nc2nc(-n3nc(C)cc3C)nc(-n3nc(C)cc3C)n2)cc1 [Compound 5d, 4,6-bis(3,5-dimethyl-1H-pyrazol-1-yl)-N-(4-methoxyphenyl)-1,3,5-triazin-2-amine] |  |  |  | 74.68 ± 2.47 | 74.7 |
